Laboratory results reported in patent US20210238184A1, “THERAPEUTIC COMPOUNDS” (Genentech, Inc., priority 2018, published 2021).

Key:
TEAD2 YAP50-100 = TEAD2 YAP50-100 (Homo sapiens, UniProt Q15562); assay: TEAD2:YAP50-100 protein-protein interaction HTRF (TR-FRET) assay; conditions: His-tagged TEAD YAP binding domain (aa 217-447), biotinylated YAP peptide aa 50-100; 30 min pre-incubation, 60 min at room temperature; read-out: TEAD2 YAP50-100 HTRF WuXi EC50
Protocol: (§1) Purified His-tagged TEAD protein (YAP Binding Domain, amino acids 217-447) is pre-incubated with Europium labelled anti-His antibody tracer (Perkin Elmer Cat #AD0110). Small molecule Inhibitors are then incubated with the TEAD-Eu protein complex for 30 minutes to allow for binding to TEAD protein. Biotinylated YAP peptide (AA's 50-100) that has been pre-incubated with streptavidin x1665 acceptor (CIS-Bio Cat #610SAXAC) is added to the compound-TEAD mix. The TEAD-YAP-inhibitor mixture is then incubated for 60 minutes at room temperature. All reactions are carried out in a polystyrene plate. After 60 minutes, the plate is read on a plate reader using TR-FRET mode with wavelengths of 665 nm/615 nm. If YAP binds to TEAD as expected, a TR-FRET signal results from the proximity of YAP and TEAD after binding. If an inhibitor such as peptide 17 (Selleckchem Cat #S8164) interferes with YAP-TEAD binding, the disruption of the YAP:TEAD interaction results in a decrease in TR-FRET signal. The potency of compounds as YAP:TEAD protein-protein interaction (PPi) inhibitors is determined by an IC50 or EC50 value generated using a non-linear four parameter curve fit.

TEAD3 YAP50-100 = TEAD3 YAP50-100 (Homo sapiens, UniProt Q99594); assay: TEAD3:YAP50-100 protein-protein interaction HTRF (TR-FRET) assay; conditions: His-tagged TEAD YAP binding domain (aa 217-447), biotinylated YAP peptide aa 50-100; 30 min pre-incubation, 60 min at room temperature; read-out: TEAD3 YAP50-100 HTRF WuXi EC50
Chain of TEAD3 YAP50-100 (Q99594 216-435 limits assumed): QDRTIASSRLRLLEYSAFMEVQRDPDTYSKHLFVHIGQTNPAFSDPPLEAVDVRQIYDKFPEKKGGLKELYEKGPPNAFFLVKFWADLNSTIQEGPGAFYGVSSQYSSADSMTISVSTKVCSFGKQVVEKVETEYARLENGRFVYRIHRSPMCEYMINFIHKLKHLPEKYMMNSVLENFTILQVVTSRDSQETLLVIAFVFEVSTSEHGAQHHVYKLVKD
Protocol: as §1

Chain of TEAD2 YAP50-100 (Q15562 217-447): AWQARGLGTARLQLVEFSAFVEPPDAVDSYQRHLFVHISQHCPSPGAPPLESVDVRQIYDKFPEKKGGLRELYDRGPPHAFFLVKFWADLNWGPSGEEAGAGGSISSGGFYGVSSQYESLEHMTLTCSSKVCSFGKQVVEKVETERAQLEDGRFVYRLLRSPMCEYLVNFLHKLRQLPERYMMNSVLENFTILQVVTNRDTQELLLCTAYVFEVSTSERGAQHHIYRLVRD

EC50 (TEAD2 YAP50-100) [µM]	EC50 (TEAD3 YAP50-100) [µM]	Structure (SMILES)
0.08	4.38	CCNC(=O)c1cnn2c(=O)cc(-c3ccc(C(F)(F)F)cc3)[nH]c12 [Example 24, N-Ethyl-7-oxo-5-(4-(trifluoromethyl)phenyl)-4,7-dihydropyrazolo[1,5-a]pyrimidine-3-carboxamide]
0.342	0.016	CN(C)C(=O)c1cnn2c(=O)cc(-c3ccc(C4CCCC4)cc3)[nH]c12 [Example 3, 5-(4-Cyclopentylphenyl)-N,N-dimethyl-7-oxo-4,7-dihydropyrazolo[1,5-a]pyrimidine-3-carboxamide]
3.7	0.175	CCOC(=O)c1cnn2c(=O)cc(-c3ccc(N(C)CC4CC4)cc3)[nH]c12 [Example 32, Ethyl 5-(4-((cyclopropylmethyl)(methyl)amino)phenyl)-7-oxo-4,7-dihydro pyrazolo[1,5-a]pyrimidine-3-carboxylate]
0.0225	0.028	O=C(c1cnn2c(=O)cc(-c3ccc(C4CCCCC4)cc3)[nH]c12)N1CC[C@@H]1CF [Example 43, (R)-5-(4-cyclohexylphenyl)-3-(2-(fluoromethyl)azetidine-1-carbonyl)pyrazolo[1,5-a]pyrimidin-7(4H)-one]
1.62	0.095	CCOC(=O)c1cnn2c(=O)cc(-c3ccc(C(C)(C)C)cc3)[nH]c12 [Example 30]
0.012	0.027	O=C(c1cnn2c(=O)cc(-c3ccc(C4CCCCC4)cc3)[nH]c12)N1CC(C(F)F)C1 [Example 38, 5-(4-Cyclohexylphenyl)-3-(3-(difluoromethyl)azetidine-1-carbonyl)pyrazolo[1,5-a]pyrimidin-7(4H)-one]
0.12	0.019	CCOC(=O)c1cnn2c(=O)cc(-c3ccc(C4CCCC4)cc3)[nH]c12 [Example 2, Ethyl 5-(4-cyclopentylphenyl)-7-oxo-4,7-dihydropyrazolo[1,5-a]pyrimidine-3-carboxylate]
0.263	0.041	CCOC(=O)c1cnn2c(=O)cc(-c3ccc(C4CCC(F)(F)CC4)cc3)[nH]c12 [Example 1, Ethyl 5-(4-(4,4-difluorocyclohexyl)phenyl)-7-oxo-4,7-dihydropyrazolo[1,5-a]pyrimidine-3-carboxylate]
3.57	0.393	CCOC(=O)c1c(C)nn2c(=O)cc(-c3ccc(Oc4ccccc4)cc3)[nH]c12 [Example 28, Ethyl 2-methyl-7-oxo-5-(4-phenoxyphenyl)-4,7-dihydropyrazolo[1,5-a]pyrimidine-3-carboxylate]
0.068	0.056	O=C(c1cnn2c(=O)cc(-c3ccc(C4CCCCC4)cc3)[nH]c12)N1CC(F)(F)C1 [Example 12, 5-(4-Cyclohexylphenyl)-3-(3,3-difluoroazetidine-1-carbonyl)pyrazolo[1,5-a]pyrimidin-7(4H)-one]
1.78	0.834	CCOC(=O)c1cnn2c(=O)cc(-c3ccc(C(F)(F)F)cc3)[nH]c12 [Example 23, Ethyl 7-oxo-5-(4-(trifluoromethyl)phenyl)-4,7-dihydropyrazolo[1,5-a]pyrimidine-3-carboxylate]
0.501	1.11	CN(C)C(=O)c1cnn2c(=O)cc(-c3ccc(Oc4ccccc4)cc3)[nH]c12 [Example 16, /VA-Dimethyl-7-oxo-5-(4-phenoxyphenyl)-4,7-dihydropyrazolo[1,5-a]pyrimidine-3-carboxamide]
0.0125	0.0185	CC1(F)CN(C(=O)c2cnn3c(=O)cc(-c4ccc(C5CCCCC5)cc4)[nH]c23)C1 [Example 40, 5-(4-Cyclohexylphenyl)-3-(3-fluoro-3-methylazetidine-1-carbonyl)pyrazolo[1,5-a]pyrimidin-7(4H)-one]
0.793	0.066	CCOC(=O)c1cnn2c(=O)cc(-c3ccc(OC4CCCCC4)cc3)[nH]c12 [Example 13, Ethyl 5-(4-(Cyclohexyloxy)phenyl)-7-oxo-4,7-dihydropyrazolo[1,5-a]pyrimidine-3-carboxylate]
7.35	0.239	CCOC(=O)c1cnn2c(=O)cc(-c3ccc(N4CCCCC4)cc3)[nH]c12 [Example 18, Ethyl 7-oxo-5-(4-(piperidin-1-yl)phenyl)-4,7-dihydropyrazolo[1,5-a]pyrimidine-3-carboxylate]
0.187	0.06	CCOC(=O)c1cnn2c(=O)cc(-c3ccc(C4CCCC4(C)C)cc3)[nH]c12 (single isomer, unassigned) [Example 20]

EC50 (TEAD2 YAP50-100) [µM]	EC50 (TEAD3 YAP50-100) [µM]	Structure (SMILES)
0.0045	0.01	O=C(c1cnn2c(=O)cc(-c3ccc(C4CCCCC4)cc3)[nH]c12)N1CC(CF)C1 [Example 41, 5-(4-Cyclohexylphenyl)-3-(3-(fluoromethyl)azetidine-1-carbonyl)pyrazolo[1,5-a]pyrimidin-7(4H)-one]
0.066	0.019	CCOC(=O)c1cnn2c(=O)cc(-c3ccc(C4CCCCC4)cc3)[nH]c12 [Example 4, Ethyl 5-(4-cyclohexylphenyl)-7-oxo-4,7-dihydropyrazolo[1,5-a]pyrimidine-3-carboxylate]
0.295	0.405	O=C(c1cnn2c(=O)cc(-c3ccc(C4CCCCC4)cc3)[nH]c12)N1CC(C(F)(F)F)C1 [Example 39, 5-(4-Cyclohexylphenyl)-3-(3-(trifluoromethyl)azetidine-1-carbonyl)pyrazolo[1,5-a]pyrimidin-7(4H)-one]
0.212	10.4	CNC(=O)c1cnn2c(=O)cc(-c3ccc(C(F)(F)F)cc3)[nH]c12 [Example 25, N-methyl-7-oxo-5-(4-(trifluoromethyl)phenyl)-4,7-dihydropyrazolo[1,5-a]pyrimidine-3-carboxamide]
1.1	0.567	CN(CCO)C(=O)c1cnn2c(=O)cc(-c3ccc(C4CCCCC4)cc3)[nH]c12 [Example 5, 5-(4-cyclohexylphenyl)-N-(2-hydroxyethyl)-N-methyl-7-oxo-4,7-dihydropyrazolo[1,5-a]pyrimidine-3-carboxamide]
0.00585	0.013	N#CC1CN(C(=O)c2cnn3c(=O)cc(-c4ccc(C5CCCCC5)cc4)[nH]c23)C1 [Example 44]
0.00879	0.0522	N#C[C@@H]1CCN(C(=O)c2cnn3c(=O)cc(-c4ccc(C5CCCCC5)cc4)[nH]c23)C1 [Example 37, (R)-1-(5-(4-Cyclohexylphenyl)-7-oxo-4,7-dihydropyrazolo[1,5-a]pyrimidine-3-carbonyl)pyrrolidine-3-carbonitrile]
0.0145	0.0395	O=C(c1cnn2c(=O)cc(-c3ccc(C4CCCCC4)cc3)[nH]c12)N1CCC(F)(F)C1 [Example 42, 5-(4-Cyclohexylphenyl)-3-(3,3-difluoropyrrolidine-1-carbonyl)pyrazolo[1,5-a]pyrimidin-7(4H)-one]
0.087	0.018	CN(C)C(=O)c1cnn2c(=O)cc(-c3ccc(C4CCCCC4)cc3)[nH]c12 [Example 7, 5-(4-Cyclohexylphenyl)-N,N-dimethyl-7-oxo-4,7-dihydropyrazolo[1,5-a]pyrimidine-3-carboxamide]
0.038	0.023	O=C(c1cnn2c(=O)cc(-c3ccc(C4CCCCC4)cc3)[nH]c12)N1CCC1 [Example 8, 3-(Azetidine-1-carbonyl)-5-(4-cyclohexylphenyl)pyrazolo[1,5-a]pyrimidin-7(4H)-one]
2.19	0.765	CCOC(=O)c1cnn2c(=O)cc(-c3ccc(C4(c5ccccc5)CC4)cc3)[nH]c12 [Example 33, Ethyl 7-oxo-5-(4-(1-phenylcyclopropyl)phenyl)-4,7-dihydropyrazolo[1,5-a]pyrimidine-3-carboxylate]
0.011	0.032	CC1CN(C(=O)c2cnn3c(=O)cc(-c4ccc(C5CCCCC5)cc4)[nH]c23)C1 [Example 11, 5-(4-Cyclohexylphenyl)-3-(3-methylazetidine-1-carbonyl)pyrazolo[1,5-a]pyrimidin-7(4H)-one]
1.87	0.028	CN(C)C(=O)c1cnn2c(=O)cc(-c3ccc(C4CCC4)cc3)[nH]c12 [Example 36, 5-(4-Cyclobutylphenyl)-N,N-dimethyl-7-oxo-4,7-dihydropyrazolo[1,5-a]pyrimidine-3-carboxamide]
1.63	0.095	O=C(c1cnn2c(=O)cc(-c3ccc(-c4ccccc4)cc3)[nH]c12)N1CCC1 [Example 35, 5-([1,1′-Biphenyl]-4-yl)-3-(azetidine-1-carbonyl)pyrazolo[1,5-a]pyrimidin-7(4H)-one]
0.055	5	CCNC(=O)c1cnn2c(=O)cc(-c3ccc(Oc4ccccc4)cc3)[nH]c12 [Example 17, N-Ethyl-7-oxo-5-(4-phenoxyphenyl)-4,7-dihydropyrazolo[1,5-a]pyrimidine-3-carboxamide]
0.27	0.037	CCOC(=O)c1cnn2c(=O)cc(-c3ccc(C4CCCC4(C)C)cc3)[nH]c12 (single isomer, unassigned) [Example 19]
